# Assay results reported in patent publication US11091447B2, “UBE2K modulators and methods for their use” (Berg LLC, priority 2020, dated 2021).
# How the values were obtained:
# MIA PaCa-2 cells = test: Cellular viability assay (Cell Titer Fluor); format: cell-based; conditions: Homo sapiens, 72 hours incubation
# Description: Cell viability were performed using the Cell Titer Fluor™ Assays (Promega G6080). MIA PaCa-2 cells are grown in DMEM media with 10% FBS, 1% Pen/Strep/Amphotericin B. Cells are trypsinized and counted using the Nexcelom cellometer. 5,000 cells/100 μl are plated per well in Greiner black/clear 96-well plates. Cells should be within 10 passages of stock vial for use in workflow. Three distinct lineages of these cells are cultured in parallel for multiple passages and 5 full plates of each lineage are seeded for one run. Small molecule compounds are provided as 100 mM stock solutions in DMSO. Dilution series plates are prepared using 1:3 dilution to achieve a 7 point concentration on a half log scale. After addition of compounds, cells are incubated 37° C., 5% CO2 for 72 hours.
# For each test compound condition, triplicate technical replicates are used. For each reference compound, duplicate technical replicates are used. At the end of the 72-hour incubation, spent media is discarded. Then, 100 μl of GF-AFC diluted in DMEM (serum and phenol red-free) is added at 1:2000 concentration (5 μl/10 ml). Cells are incubated with reaction buffer for 1 h at 37° C. Fluorescence is then read on the plate reader with excitation wavelength of 390 nm and emission wavelength of 505 nm. All raw data are analyzed on Microsoft Excel 2010 and normalized to the DMSO vehicle control. Relative results are copied into GraphPad Prism for non-linear regression analysis and determination of IC50 and other dose curve parameters (min, max, Hill slope, etc.) using the log (inhibitor) vs. response equation. Values are as follows: A represents an IC50 of <[…], B represents an IC50 of 1 mM to 10 mM, C represents an IC50 of >10 mM.
# K-562 tumor grafts = test: Tumor growth inhibition in K-562 murine xenograft model; format: in vivo, Mouse (Mus musculus); conditions: bid., p.o., K-562 xenograft, SCID Bg mice
# Description: K-562 cancer cell line sourced from American Type Culture Collection (ATCC), USA. Cells were grown in IMDM medium (Sigma, Cat #30-2005) supplemented with 10% FBS (Invitrogen, Cat #10438-026), and 1% penicillin streptomycin (Invitrogen, Cat #15140-122). To establish xenograft, the cells were harvested by trypsinization when they reach around 70 to 80% confluence and 5 million K-562 cells were suspended in 200 μL of serum-free medium and mixed at 1:1 ratio with matrigel before implanting subcutaneously into the dorsal right flank of SCID Bg mice using a 1 mL BD syringe attached to a 24-gauge needle.
# K-562 tumor grafts were measured after 10 days of cell inoculation once they became palpable. When the average tumor volume reached around 85 mm^3, animals were dosed after randomization into different treatment groups keeping tumor volume and number of animals in such a way so that the average tumor volume of each group remained same across the groups.
# Compounds were formulated in 0.5% CMC+0.1% Tween 80 and given for 12 consecutive days BID with 8 hour gaps.
SMILES,"IC50 (MIA PaCa-2 cells; MIA PaCa-2, 72 h) [µM]",further results
O=C(NCc1n[nH]c(-c2cccs2)n1)c1nccnc1N1CCCC(F)(F)C1 [Compound 90],> 10,
O=C(NCc1cc(-c2cc(F)ccc2O)[nH]n1)c1cc(F)ccc1N1CCCCC1 [Compound 91],< 1,
CCOc1ccc(F)cc1-c1cc(CNC(=O)c2cc(F)ccc2N2CCCC2)n[nH]1 [Compound 92],< 1,
CC(C)Oc1ccc(F)cc1-c1cc(CNC(=O)c2cc(F)ccc2N2CCCCC2)n[nH]1 [Compound 93],< 1,
O=C(NCc1cc(-c2cccs2)[nH]n1)c1cc(F)ccc1N1CCCC1 [Compound 94],< 1,
Cc1ccc(N2CCCC(F)(F)C2)c(C(=O)NCc2cc(-c3cccs3)[nH]n2)c1 [Compound 96],< 1,
Cc1cccc(C(=O)NCc2cc(-c3cccs3)[nH]n2)c1N1CCC(F)(F)C1 [Compound 97],1 to 10,
CC(C)Oc1ccc(F)cc1-c1cc(CNC(=O)c2cc(F)ccc2N2CCCC2)n[nH]1 [Compound 98],< 1,
CCOc1ccc(F)cc1-c1cc(CNC(=O)c2cc(F)ccc2N2CCCCC2)n[nH]1 [Compound 99],< 1,
COc1ccccc1-c1cc(CNC(=O)c2cc(F)ccc2N2CCCCC2)n[nH]1 [Compound 100],< 1,
O=C(NCc1cc(-c2ccccc2O)[nH]n1)c1cc(F)ccc1N1CCCCC1 [Compound 101],< 1,
"COc1ccccc1-c1cc(CNC(=O)c2ccccc2N2CCCCC2)n[nH]1 [Compound 102, N-((5-(2-methoxyphenyl)-1H-pyrazol-3-yl)methyl)-2-(piperidin-1-yl) benzamide]",< 1,
O=C(NCc1cc(-c2cccs2)[nH]n1)c1ccccc1N1CCCCCC1 [Compound 103],< 1,
COc1ccccc1-c1cc(CNC(=O)c2cc(F)ccc2N2CCCC2)n[nH]1 [Compound 104],< 1,
COc1ccccc1-c1cc(CNC(=O)c2ccccc2N2CCCC2)n[nH]1 [Compound 105],< 1,
COc1ccc(F)cc1-c1cc(CNC(=O)c2cc(F)ccc2N2CCCCC2)n[nH]1 [Compound 110],< 1,
COc1cccc(-c2cc(CNC(=O)c3ccccc3OC(F)(F)F)n[nH]2)c1OC [Compound 114],> 10,
CCCOc1ccc(F)cc1-c1cc(CNC(=O)c2ccccc2OC(F)(F)F)n[nH]1 [Compound 115],> 10,
CC(C)Oc1ccc(F)cc1-c1cc(CNC(=O)c2ccccc2OC(F)(F)F)n[nH]1 [Compound 116],> 10,
COc1ccc(-c2cc(CNC(=O)c3ccccc3OC(F)(F)F)n[nH]2)c(OC)c1 [Compound 117],> 10,
"COc1ccccc1-c1nc(C2(NC(=O)c3ccccc3OC(F)F)CC2)n[nH]1 [Compound 118, 2-(difluoromethoxy)-N-(1-(5-(2-methoxyphenyl)-1H-1,2,4-triazol-3-yl)cyclopropyl) benzamide]",1 to 10,
COc1ccc(F)cc1-c1nc(CNC(=O)c2ccc3c(c2)OC(F)(F)O3)n[nH]1 [Compound 119],1 to 10,

SMILES,"IC50 (MIA PaCa-2 cells; MIA PaCa-2, 72 h) [µM]",further results
COc1ccccc1-c1nc(CNC(=O)c2ccc3c(c2)OC(F)(F)O3)n[nH]1 [Compound 120],1 to 10,
"COc1ccccc1-c1cc(S(=O)(=O)NC(=O)c2ccccc2OC(F)F)n[nH]1 [Compound 121, 2-(difluoromethoxy)-N-((5-(2-methoxyphenyl)-1H-pyrazol-3-yl)sulfonyl) benzamide]",> 10,
"COc1ccccc1-c1cc(S(=O)(=O)NC(=O)c2ccccc2OC(F)(F)F)n[nH]1 [Compound 122, N-[[5-(2-methoxyphenyl)-1H-pyrazol-3-yl]sulfonyl]-2-(trifluoromethoxy)benzamide]",> 10,
"COc1ccccc1-c1nc(S(=O)(=O)NC(=O)c2ccccc2OC(F)(F)F)n[nH]1 [Compound 123, N-((5-(2-methoxyphenyl)-1H-1,2,4-triazol-3-yl)sulfonyl)-2-(trifluoromethoxy) benzamide]",1 to 10,
"COc1ccccc1-c1nc(S(=O)(=O)NC(=O)c2ccccc2OC(F)F)n[nH]1 [Compound 124, 2-(difluoromethoxy)-N-((5-(2-methoxyphenyl)-1H-1,2,4-triazol-3-yl)sulfonyl) benzamide]",1 to 10,
COc1ccccc1-c1nc(CNC(=O)c2ccccc2OC(F)(F)F)n[nH]1 [Compound 125],< 1,
"COc1ccccc1-c1nc(CNC(=O)c2ccccc2OC(F)F)n[nH]1 [Compound 126, 2-(difluoromethoxy)-N-((5-(2-methoxyphenyl)-1H-1,2,4-triazol-3-yl)methyl) benzamide]",< 1,% Tumor Growth Inhibition (TGI) on day 3 (K-562 tumor grafts; 75 mg/kg/dose): 41%; % Tumor Growth Inhibition (TGI) on day 5 (K-562 tumor grafts; 75 mg/kg/dose): 32%; % Tumor Growth Inhibition (TGI) on day 8 (K-562 tumor grafts; 75 mg/kg/dose): 27%; % Tumor Growth Inhibition (TGI) on day 10 (K-562 tumor grafts; 75 mg/kg/dose): 27%; % Tumor Growth Inhibition (TGI) on day 12 (K-562 tumor grafts; 75 mg/kg/dose): 36%; % Tumor Growth Inhibition (TGI) on day 3 (K-562 tumor grafts; 200 mg/kg/dose): 55%; % Tumor Growth Inhibition (TGI) on day 5 (K-562 tumor grafts; 200 mg/kg/dose): 51%; % Tumor Growth Inhibition (TGI) on day 8 (K-562 tumor grafts; 200 mg/kg/dose): 51%; % Tumor Growth Inhibition (TGI) on day 10 (K-562 tumor grafts; 200 mg/kg/dose): 43%; % Tumor Growth Inhibition (TGI) on day 12 (K-562 tumor grafts; 200 mg/kg/dose): 44%
"COc1ccc(F)cc1-c1nc(CNC(=O)c2ccccc2OC(F)(F)F)n[nH]1 [Compound 127, N-((5-(5-fluoro-2-methoxyphenyl)-1H-1,2,4-triazol-3-yl)methyl)-2-(trifluoromethoxy)benzamide]",,IC50 (MIA PaCa-2 cells): < 1 µM
COc1ccc(F)cc1-c1nc(CNC(=O)c2ccccc2OC(F)F)n[nH]1 [Compound 128],< 1,
O=C(NCc1n[nH]c(-c2cc(F)ccc2O)n1)c1ccccc1OC(F)F [Compound 129],< 1,
O=C(NCc1n[nH]c(-c2cc(F)ccc2O)n1)c1ccccc1OC(F)(F)F [Compound 130],< 1,
COc1ccccc1-c1nc(CNC(=O)c2cccc3c2OC(F)(F)O3)n[nH]1 [Compound 132],< 1,
COc1ccccc1-c1nc(CNC(=O)c2cc(F)ccc2OC(F)(F)F)n[nH]1 [Compound 134],< 1,
"COc1ccc(F)cc1-c1nc(CNC(=O)c2cccc(F)c2OC(F)F)n[nH]1 [Compound 135, 2-(difluoromethoxy)-3-fluoro-N-((5-(5-fluoro-2-methoxyphenyl)-1H-1,2,4-triazol-3-yl)methyl) benzamide]",< 1,
"COc1ccccc1-c1nc(CNC(=O)c2cccc(F)c2OC(F)F)n[nH]1 [Compound 136, 2-(difluoromethoxy)-3-fluoro-N-((5-(2-methoxyphenyl)-1H-1,2,4-triazol-3-yl)methyl) benzamide]",< 1,
"COc1ccccc1-c1nc(CNC(=O)c2cc(F)ccc2OC(F)F)n[nH]1 [Compound 138, 2-(difluoromethoxy)-5-fluoro-N-((5-(2-methoxyphenyl)-1H-1,2,4-triazol-3-yl)methyl) benzamide]",< 1,
COc1ccc(F)cc1-c1nc(CNC(=O)c2cc(C#N)ccc2OC(F)F)n[nH]1 [Compound 139],< 1,
COc1ccccc1-c1nc(CNC(=O)c2cc(C#N)ccc2OC(F)F)n[nH]1 [Compound 140],< 1,
"COc1ccc(F)cc1-c1nc(CNC(=O)c2cccnc2OC(F)F)n[nH]1 [Compound 143, 2-(difluoromethoxy)-N-((5-(5-fluoro-2-methoxyphenyl)-1H-1,2,4-triazol-3-yl)methyl) nicotinamide]",< 1,
"COc1ccccc1-c1nc(CNC(=O)c2cccnc2OC(F)F)n[nH]1 [Compound 144, 2-(difluoromethoxy)-N-((5-(2-methoxyphenyl)-1H-1,2,4-triazol-3-yl)methyl) nicotinamide]",< 1,
COc1ccc(F)cc1-c1nc(CNC(=O)c2cnccc2OC(F)F)n[nH]1 [Compound 147],1 to 10,
COc1ccccc1-c1nc(CNC(=O)c2cnccc2OC(F)F)n[nH]1 [Compound 148],1 to 10,
